Experimental data from US5968526A, “T cell epitopes of the major allergens from Dermatophagoides (house dust mite)” (Immulogic Pharamaceutical Corporation, priority 1995, dated 1999).

Tests used:
[1] = system: T cell lines primed in vitro with Der p II; assay: T cell proliferation with fine map and modified Group II peptides (Example XIV); format: cell-based, human; conditions: for positive T cell responses, modified peptides: 21 T cell lines, Der p II primed, FIG. 32a; for T cell response, Group II peptides: FIGS. 32a-b
Experimental: (§1) Long term T cell lines were established by stimulation of 2×10^6 PBL/ml in bulk cultures of complete medium (RPMI-1640, 2 mM L-glutamine, 100 U/ml penicillin/streptomycin, 5×10^-5 M 2-mercaptoethanol, and 10 mM HEPES supplemented with 5% heat inactivated human AB serum) with 30 μg/ml of purified native Der p I or Der p II for 5-6 days at 37° C. in a humidified 5% CO2 incubator to select for house dust mite protein allergen reactive T cells. This amount of priming antigen was determined to be optimal for the activation of T cells from house dust mite allergic patients. Viable cells were purified by LSM centrifugation and cultured in complete medium supplemented with 5 units recombinant human IL-2/ml and 5 units recombinant human IL-4/ml for up to three weeks until the cells no longer responded to lymphokines and were considered "rested". The ability of the T cells to proliferate to selected peptides, purified Der p I or Der p II, or positive (PHA) controls or negative controls (medium only) was then assessed. For assay, 2×10^4 rested cells were restimulated in the presence of 2×10^4 autologous Epstein-Barr virus (EBV)-transformed B cells (prepared as described below) (gamma-irradiated with 25,000 RADS) or with 5×10^4 autologous PBMs (gamma-irradiated with 3500 RADS), with 2-50 μg/ml of purified native Der p I or Der p II in a volume of 200 μl complete medium in duplicate or triplicate wells in 96-well round bottom plates for 3 days. Each well then received 1 μCi tritiated thymidine for 16-20 hours. The counts incorporated were collected onto glass fiber filter mats and processed for liquid scintillation counting. […] The titrations were used to optimize the dose of peptides in T cell assays.
(§2) The maximum response in a titration of each peptide is expressed as the stimulation index (S.I.). The S.I. is the counts per minute (CPM) incorporated by cells in response to peptide, divided by the CPM incorporated by cells in medium only. […] The positive results were used in calculating mean stimulation indices for each peptide for the individual patient tested.
(§3) The above procedure was followed with 18 patients in the studies using peptides derived from Der p I and Der f I (FIGS. 31a-b), and 21 patients in the studies with Der p II peptides (FIGS. 32a-b). Individual patient results were used in calculating the mean S.I. for each peptide if the patient responded to the Der p I or Der p II protein at an S.I. of 2.0 or greater and the patient responded to at least one peptide derived from a house dust mite allergen at an S.I. f 2.0 or greater. A summary of positive experiments from the patients tested is shown in FIGS. 32a and 32b and FIGS. 33a and 33b. The bars represent the positivity index. […] In parenthesis above each bar are the mean stimulation indices for each peptide or protein for the group of patients tested.
(§4) Autologous EBV-transformed cell lines were γ-irradiated with 25,000 Rad and used as antigen presenting cells in secondary proliferation assays and secondary bulk stimulations. These EBV-transformed cell lines were made by incubating 5×10^6 PBL with 1 ml of B-59/8 Marmoset cell line (ATCC CRL1612, American Type Culture Collection, Rockville, Md.) conditioned medium in the presence of 1 μg/ml phorbol 12-myristate 13-acetate (PMA) at 37° C. for 60 minutes in 12×75 mm polypropylene round-bottom Falcon snap cap tubes (Becton Dickinson Labware, Lincoln Park, N.J.). These cells were then diluted to 1.25×10^6 cells/ml in RPMI-1640 as described above except supplemented with 10% heat-inactivated fetal bovine serum and cultured in 200 μl aliquots in flat bottom culture plates until visible colonies were detected. They were then transferred to larger wells until the cell lines were established.

human IgE = assay: direct binding ELISA of IgE to mite allergen proteins and peptides; conditions: plasma of 19 mite-allergic patients and pool of 18; Example XV
Experimental: The coating antigens were removed and the wells are blocked with 0.5% gelatin in PBS, 300 μl/well for 2 hours at room temperature. Pooled human plasma (a mix of plasma samples from 20 patients that were skin test positive for commerical mite extract) was serially diluted with PBS-Tween 20 (PBS with 0.05% nonionic detergent Tween-20 Sigma, St. Louis, Mo.) and 100 μl/well a.backslash.was added and incubated overnight at 4° C. (plasma dilutions were tested in duplicate). The second antibody (biotinylated goat anti-Human IgE, 1:1000, Kirkegaard & Perry Laboratories Inc, Gaithersburg, Md.), was added at 100 μl/well for one hour at room temperature. This solution was removed and streptavidin-HRPO, 1:10000, (Southern Biotechnology Associates, Inc., Birmingham, Ala.) was then added at 100 μl/well for one hour at room temperature (all wells are washed three times with PBS-Tween between each incubation step). TMB Membrane Peroxidase Substrate system (Kirkegaard & Perry Laboratories) was freshly miced, and added at […]. The color was allowed to develop for 2-5 minutes. The reaction was stopped by the addition of […] of 1M phosphoric acid. Plates were read on a Microplate IL310 Autoreader (Biotech Instruments, Winooski, Vt.) with a 450 nm filter. The absorbance levels of duplicate wells were averaged. The order of coating antigens listed vertically in these figure legends corresponds in orDer from left to right to the coating antigens listed for each histogram.
The antigen preparation that was used as a positive control was a mixture of the four major biochemically purified mite allergens (term PMA for Purified Mite Allergen); Der f I, Der f II, Der p I and Der p II. The stock was generated at a concentration of 100 μgs of each protein per millimeter or 400 μgs total protein/ml. This preparation was used on each coated ELISA plate.

[2] = system: T cell lines primed in vitro with Der p I; assay: T cell proliferation with fine map and modified Group I peptides (Example XIV); format: cell-based, human; conditions: FIGS. 31a-b
Experimental: as §1, §2, §3, §4

| Substance | positive T cell responses, modified peptides [1] | T cell response, Group II peptides [1] | IgE binding (ELISA), modified peptides (human IgE) | T cell response, Group I peptides [2] |
| --- | --- | --- | --- | --- |
| DP II-20.10: modified Der p II peptide (DQVDVKDCANHEIKKVLVPGCHGSEG) | all 21 T cell lines responded positively | positive T cell studies | No plasma samples contained IgE |  |
| DP II-22.19: DKELEAVFEANQNTKTAKIEIKAD | all 21 T cell lines responded positively | positive T cell studies | No plasma samples contained IgE |  |
| DP I-22.4: Der p I peptide (VAATESAYLAHRNQSLDLAEQELVDCASQ) |  |  |  | positive responses |
| DP II-22.22: DKELEAVFEANQNTKTAKIEIKK | all 21 T cell lines responded positively | positive T cell studies | No plasma samples contained IgE |  |
| DP II-22.23: DKELEAVFEANQNTKTAKIED | all 21 T cell lines responded positively | positive T cell studies | No plasma samples contained IgE |  |
| DP II-20.8: modified Der p II peptide (DQVDVKDCANHEIKKVLVPGCHGSEPK) | all 21 T cell lines responded positively |  | No plasma samples contained IgE |  |
| DP II-20.11: modified Der p II peptide; printed with the same SEQ ID NO as DP II-20.9 (DQVDVKDCANHEIKKVLVPGCHGSE) | all 21 T cell lines responded positively | positive T cell studies | No plasma samples contained IgE |  |
| DP II-25.9: modified Der p II peptide (DKTVKVMGDDGVLACAIATHAKIRDKE) | all 21 T cell lines responded positively | positive T cell studies | No plasma samples contained IgE |  |
